Measured values from patent US20110065749A1, “METHOD AND PHARMACEUTICAL COMPOSITION FOR TREATMENT OF MENTAL DISORDERS” (ACTIVE CO. LTD., priority 2008, published 2011).
Counter-ions that a name gives are not always drawn.

What was measured:
Format in all cases: in vivo, human
Fibromyalgia [1] = experiment: Case 15: fibromyalgia (1) patient; conditions: maximum doses, three years, before Cephadol
Protocol: They then visited the inventor's clinic. When the inventor started the treatment with 75 mg/day Cephadol®, systemic pain of the patient was improved in two days. […] As a result, they became able to perform usual household work, go outside, and further make a trip.

Alcoholism = experiment: Case 6: alcoholism patient; conditions: before Cephadol
Source text: Case 6: Alcoholism Patient was a office worker, who was drinking 1 to 2 liters of beer and 3 to 5 glasses of distilled spirit or whisky with water every day. They were drinking alcohol in daytime on Sundays, and suffering from a complication of liver dysfunction.

[2] = tested on: manic state of bipolar I disorder; experiment: Case 3: manic-depressive illness patient; conditions: 1,200 mg, before Cephadol
Protocol: Case 3: Manic-Depressive Illness Patient was a person, who had continuously been in a manic state of bipolar I disorder for over one month. An antiepileptic drug, or 1,200 mg of Limas®, was ineffective. Antipsychotic drugs were not usable due to significant side effects. […] When they discontinued the administration of Cephadol®, the manic state appeared after 5 days.

Fibromyalgia [3] = experiment: Case 16: fibromyalgia (2) patient; conditions: before Cephadol
Source text: […] There were persistent systemic malaise, lassitude, depressed mood, sleeplessness, neck stiffness and systemic pain. Their score of depression on Hamilton D scale was 25 to 28. No hematological abnormality was detected. As a result of overall judgment based on examinations including a tender point examination, they were diagnosed as having fibromyalgia. They were unresponsive to tricyclic or tetracyclic antidepressants, SSRIs, SNRIs, and Moclobemide. Then, they continued the treatment with 60 mg/day fluoxetine. […] It was concluded that the onset of their depression was due to the systemic pain, and the depression was improved by the drastic improvement of the systemic pain.

depression = experiment: Case 9: depressed symptoms patient, HAMD; conditions: 40 mg, before Cephadol
Source text: For evaluation of the state of depression, for example, Hamilton's rating scale for depression (HAMD) is available. The HAMD was developed by Max Hamilton in 1960 for the purpose of measuring the severity of a patient diagnosed with depression (Hamilton, M., Journal of Neurology, Neurosurgery & Psychiatry, 23-56-62 (1960) and Hamilton, M., “Development of rating scale for primary depressive illness”, British Journal of Social and Clinical Psychology, 6: 278-296 (1967)). In view of its high usefulness, it is a representative scale of evaluation for depression, widely used in clinical researches and practices. The 17 item version is used for clinical trials of antidepressants in Japan, whereas the 21 item version and the 24 item version are used in Europe or other countries.
When the severity is calculated using Hamilton's rating scale for depression (HAMD), each item is evaluated with three grades of 0-2, or five grades of 0-4. For example, the case is diagnosed as severe where the point is 20 or higher and, as the point decreases, the symptom is diagnosed as being improved.
Case 9: Depressed Symptoms
Administration to the patient of 75 mg/day Cephadol® reduced the HAMD score from 20 points to 7 points after 3 days.

Fibromyalgia [4] = experiment: Case 18: fibromyalgia (4) patient; conditions: before Cephadol
Source text: Case 18: Fibromyalgia (4)
A person (housewife) is a patient with depression, having received regular medical treatment since seven years ago. […] However, a diagnosis with autoimmune disease or inflammatory disease was negative from their blood test. Due to back pain and fingertip pain, they were unable to make household work, and it was painful for them to hold even a light object by hand. They had pain at 15 points among the 18 tender points of the whole body, and was diagnosed with fibromyalgia. […] They had to stay in bed all day long, and such a condition lasted for the long term.

Bulimia = experiment: Case 8: bulimia (2) patient; conditions: 40 mg
Source text: Patient was a person, who had been suffering from bulimia. The bulimia persisted even after their marriage and childbearing.

Alzheimer-Type Dementia = experiment: Case 4: Alzheimer-type dementia patient
Source text: Case 4: Alzheimer-Type Dementia

## CN(C)CCC=C1c2ccccc2CCc2ccccc21 [Triptanol]
Fibromyalgia [1]
  response of fibromyalgia to earlier medicines: without any improvement

## N#CN [Cyanamide]
Alcoholism
  efficacy of earlier drugs on alcoholism: without any efficacy

## O=C([O-])[O-].[Li+].[Li+] [Limas®]
[2]
  efficacy on manic state: ineffective

## O=C(NCCN1CCOCC1)c1ccc(Cl)cc1 [Moclobemide]
Fibromyalgia [3]
  response to earlier drugs: unresponsive

## Fc1ccc([C@@H]2CCNC[C@H]2COc2ccc3c(c2)OCO3)cc1 [Paxil®, paroxetine]
depression
  depression: without any improvement

## CCN(CC)C(=O)C1(c2ccccc2)CC1CN (stereo not shown) [Milnaciplan]
Fibromyalgia [4]
  back pain: rather deteriorated their back pain

## CNCCC(Oc1ccc(C(F)(F)F)cc1)c1ccccc1.Cl (stereo not shown) [Prozac®]
Bulimia; before Cephadol
  bulimia: slightly improved the bulimia
Bulimia; previously two to three times a day
  frequency of overeating and emesis: reduced to once daily

## COc1cc2c(cc1OC)C(=O)C(CC1CCN(Cc3ccccc3)CC1)C2 (stereo not shown) [donepezil hydrochloride]
Alzheimer-Type Dementia; donepezil hydrochloride together with 50 mg Cephadol before sleeping
  dementia: significant improvement of the dementia
Alzheimer-Type Dementia; donepezil hydrochloride without Cephadol
  side effect that made treatment difficult: excitatory side effect
